Measurements published in the OPERA property sets (Mansouri et al. 2018).

Details: not given

| SMILES | log10 Koc (L/kg) | log10 vapour pressure (mmHg) | melting point [°C] | boiling point [°C] | log10 biodegradation half-life (days) | ready biodegradability | log10 Henry constant (atm·m³/mol) | log10 Koa |
| --- | --- | --- | --- | --- | --- | --- | --- | --- |
| CCOP(=S)(OCC)Oc1ccc(S(C)=O)cc1 (stereo unspecified) | 2.52 | -4.3 | – | – | – | – | – | – |
| CC(=O)N=c1sc(S(N)(=O)=O)nn1C | – | – | 214 | – | – | – | – | – |
| CCCCCC(O)c1ccc(O)c(O)c1 (stereo unspecified) | – | – | 109 | – | – | – | – | – |
| CC(C)CCC(C)(C)C | – | 1.22 | -106 | 124 | 1.26 | – | – | – |
| C/C=C(/C)C(C)C | – | – | -121 | 89.9 | – | – | – | – |
| Cc1ccnc2ccccc12 | – | -2.2 | 9.5 | 262 | – | – | – | – |
| CCC(Cl)(Cl)[N+](=O)[O-] | – | – | – | 145 | – | – | – | – |
| CC[C@H](C)C(=O)O[C@H]1CCC=C2C=C[C@H](C)[C@H](CC[C@@H]3C[C@@H](O)CC(=O)O3)[C@H]21 | – | – | 152 | – | – | – | – | – |
| CC(C)CC1CCCC1 | – | – | -115 | 148 | – | – | – | – |
| CC1CCC2CC1C2(C)C (stereo unspecified) | – | – | – | 160 | – | – | – | – |
| ClCc1ccc2c(c1)OCO2 | – | – | 20.5 | – | – | – | – | – |
| Clc1cccnc1 | – | – | – | 148 | – | – | – | – |
| Cn1cncc1C[C@H]1COC(=O)[C@@H]1[C@@H](O)c1ccccc1 | – | – | 179 | – | – | – | – | – |
| CCC(O)C(Cl)(Cl)Cl (stereo unspecified) | – | – | – | 171 | – | – | – | – |
| CCC(=O)C(=O)O | – | – | 33 | – | – | – | – | – |
| NC12CC3CC(CC(C3)C1)C2 | – | – | 180 | – | – | – | – | – |
| CC(C)CCCCCO | – | – | -106 | 188 | – | – | – | – |
| c1ccc2cnccc2c1 | – | -1.16 | 26.5 | 243 | – | – | – | – |
| COS(=O)(=O)Cl | – | – | -70 | 134 | – | – | – | – |
| COC(=O)c1ccc(O)c(OC)c1 | – | – | 64 | 286 | – | – | – | – |
| O=C(O)CCCCCCCCCCCCC(=O)O | – | – | 127 | – | – | readily biodegradable | – | – |
| NNS(=O)(=O)c1ccc(Oc2ccc(S(=O)(=O)NN)cc2)cc1 | – | – | – | – | – | not readily biodegradable | – | – |
| O=C=NC1CCCCC1 | – | 0.0086 | -80 | 172 | – | – | – | – |
| Nc1ccc(S(N)(=O)=O)cc1 | – | – | – | – | – | not readily biodegradable | – | – |
| BrCc1ccc(Br)cc1 | – | – | 63 | – | – | – | – | – |
| O=C1c2ccccc2Cc2ccccc21 | – | – | 155 | – | – | – | – | – |
| O=C=Nc1ccc(N=C=O)cc1 | – | – | 97.5 | 260 | – | – | – | – |
| Clc1ccc(Cl)c(Cl)c1Cl | 3.84 | -1.41 | 47.5 | 254 | – | not readily biodegradable | -3.12 | 5.64 |

| SMILES | log10 Koc (L/kg) | log10 vapour pressure (mmHg) | melting point [°C] | boiling point [°C] | log10 biodegradation half-life (days) | ready biodegradability | log10 Henry constant (atm·m³/mol) | log10 Koa |
| --- | --- | --- | --- | --- | --- | --- | --- | --- |
| CCCCCOC(=O)c1ccccc1O | – | – | – | 270 | – | – | – | – |
| COC(=O)c1c[nH]c2ccccc12 | – | – | 150 | – | – | – | – | – |
| COc1ccc(C(=O)c2ccccc2)c(O)c1 | – | – | 65.5 | – | – | not readily biodegradable | – | – |
| C=CC(=O)OCCCCCC | – | – | -45 | – | – | readily biodegradable | – | – |
| O=C(O)c1c(Cl)cc(Cl)cc1Cl | – | – | 162 | – | – | – | – | – |
| O=c1cc(O)cc[nH]1 | – | – | 278 | – | – | – | – | – |
| Cc1ccc(C)c(Cl)c1 | – | – | 1.6 | 187 | – | not readily biodegradable | – | – |
| BrC(Br)(Br)Br | – | -0.569 | 90.1 | 190 | – | – | – | – |
| Oc1c(Br)cc(Br)c(Br)c1Br | – | – | 114 | – | – | – | – | – |
| Oc1ccc2c3c1O[C@H]1[C@@H](O)C=C[C@H]4[C@H](C2)NCC[C@@]341 | – | – | 273 | – | – | – | – | – |
| C[C@@H]1N[C@@H]2CCCCCCCC(=O)O[C@H]3CC[C@@H](CCCCCCCC(=O)O[C@H]1CC2)N[C@H]3C | – | – | 121 | – | – | – | – | – |
| CCCCC(C)C(C)C (stereo unspecified) | – | – | -116 | 140 | – | – | – | – |
| CN(C)c1ccc([N+](=O)[O-])cc1 | – | -5.22 | 164 | – | – | – | – | – |
| Clc1cc2oc3cc(Cl)c(Cl)c(Cl)c3c2c(Cl)c1Cl | – | – | – | – | – | – | – | 10.9 |
| CCOc1ccc(C(C)(C)COCc2cccc(Oc3ccccc3)c2)cc1 | – | – | 37 | – | – | – | – | – |
| c1ccc2c(c1)ccc1nc3ccc4ccccc4c3cc12 | – | – | 216 | – | – | – | – | – |
| CN(C)C(=S)SC(=S)N(C)C | – | – | 110 | – | – | – | – | – |
| Clc1cc(Cl)c2ccccc2n1 | – | – | 67.5 | 281 | – | – | – | – |
| CCCCCCCCCCCF | – | -0.682 | – | – | – | – | – | – |
| C[Si](C)(C)OS(=O)(=O)C(F)(F)F | – | – | – | 140 | – | – | – | – |
| Nc1cc(S(N)(=O)=O)ccc1S(=O)(=O)CCCO | – | – | 137 | – | – | – | – | – |
| C[Si](C)(C)C#C[Si](C)(C)C | – | – | 26 | 134 | – | – | – | – |
| CCC(C)OC(C)CC (stereo unspecified) | – | 1.21 | -100 | – | – | – | – | – |
| CC(C)CCC(C)C | – | 1.48 | -91 | 109 | 1.4 | – | – | – |
| COC(C)(C)OC | – | 2.01 | -47 | 83 | – | – | – | – |
| CCCCCCCCCCCCCCCCC | – | -3.64 | 22 | 302 | 1.3 | readily biodegradable | – | – |
| Clc1cccc(Nc2ccccc2)c1 | – | – | – | 338 | – | – | – | – |

Same assay, conditions: fish

| SMILES | log10 BCF | log10 biotransformation half-life (days) |
| --- | --- | --- |
| CCOP(=S)(NC(C)C)Oc1ccccc1C(=O)OC(C)C (stereo unspecified) | 2.12 | -0.51 |
| Brc1cc(Br)c(Oc2c(Br)c(Br)c(Br)c(Br)c2Br)cc1Br | 5.93 | – |
| CCCCCCCCc1ccc2ccc3cccc4ccc1c2c34 | – | 1.26 |
| CCCCC(CC)COC(=O)c1ccccc1C(=O)OCC(CC)CCCC (stereo unspecified) | 2.77 | 0.44 |
| CC(C)(C)c1cc(-n2nc3ccccc3n2)c(O)c(C(C)(C)C)c1 | – | 0.89 |
| Clc1ccc(Oc2c(Cl)cc(Cl)c(Cl)c2Cl)c(Cl)c1 | – | 2.76 |
| Clc1cc(Cl)c(-c2ccc(Cl)c(Cl)c2Cl)cc1Cl | – | 2.59 |
| Clc1ccc(Cl)c(Cl)c1Cl | 3.38 | 0.69 |
| COc1ccc(C(=O)c2ccccc2)c(O)c1 | 1.97 | – |
| CCCCC(C)C(C)C (stereo unspecified) | – | 1.28 |
